Assay results as given in patent publication US8846671B2, “Heterocyclic alkynyl benzene compounds and medical compositions and uses thereof” (Guangzhou Institute of Biomedicine and Health, Chinese …, priority 2010, dated 2014).
Structures can show the parent of a compound that is named as a salt. Where two headings read alike, the source gives them in different places.

Tests used:
[1] = Pharmacokinetics and bioavailability in rats; format: in vivo; details: SD rats; for BA(% Oral bioavailability) / bioavailability: calculated according to AUC data, PO vs IV; for pharmacokinetics parameters, overall judgement: corresponding pharmaceutical acceptable salt forms; for bioavailability: read-out: BA(% Oral bioavailability)
In short: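 Rats dosed, heparinized blood sampled at set times, plasma stored at -20 °C, acetonitrile-precipitated and analyzed by HPLC-MS. Compartmental and non-compartmental parameters derived; bioavailability from AUC.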

[2] = tested on: K562 cells (human CML cell line expressing native Bcr-Abl); assay: Xenograft model of K562 in nude mice, oral dosing; details: for anti-tumor effect compared with imatinib / effect on body weight: po, qd
Procedure: Tumor volume and body weight were monitored once every 2 days (In each group, the tumor volume and body weight at beginning of the day were recorded). Tumor volume was calculated as […]*a*b*b.L×W2/2 (a and b are the length and width of the tumor, respectively). […] The results were shown in Drawings as FIGS. 1, 2, 3, 4, 5, 6, 7 and 8.

[3] = tested on: MEG-01 (Human megakaryoblastic leukaemia cell line); assay: tumor cell proliferation, MTT or CCK8 assay, 72 h incubation; format: cell-based; details: MEG-01, 72 h, read-out: IC50 on tumor cell proliferation, MEG-01
In short: (§1)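 Leukemia cell lines were exposed to compounds at 1×10^−10˜1×10^−5M for 72 h. Proliferation was read by MTT (570 nm) or CCK8 (450/650 nm) after a further 4 h incubation. IC50 values were calculated from inhibition of proliferation.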

[4] = tested on: MOLT-4 (Human acute lymphoblastic leukemia cell line); assay: as above; format: cell-based; details: MOLT-4, 72 h, read-out: IC50 on tumor cell proliferation, MOLT-4
In short: as §1

[5] = tested on: L78 (Lung cancer cell line); assay: as above; format: cell-based; details: Homo sapiens, read-out: IC50 on tumor cell proliferation, L78
[6] = tested on: K562 (human chronic myelogenous leukemia cell line); assay: as above; format: cell-based; details: K562, 72 h, read-out: IC50 on tumor cell proliferation, K562
In short: as §1

[7] = tested on: U937 Cell line; assay: as above; format: cell-based; details: Homo sapiens, read-out: IC50 on tumor cell proliferation, U937
In short: as §1

[8] = target: BAF3-T315I cells (Ba/F3 cell line stably expressing BCR/ABL T315I) (Homo sapiens, UniProt P00519, T315I, cells depend on it); assay: as above; format: cell-based, mice
[9] = tested on: K562R cells (imatinib-resistant cell line); assay: as above; format: cell-based; details: Homo sapiens, K-562R, read-out: IC50 on tumor cell proliferation, K562R cells
[10] = tested on: Ba/F3-Bcr/ABL-T315I cells; assay: Xenograft model of BAF3-T315I in SCID nude mice, oral dosing
Procedure: When the mean tumor volume reached 300-500 mm^3, mice were grouped and administered orally. […] Tumor volume and body weight were monitored once every 2 days (In each group, the tumor volume and body weight at beginning of the day were recorded). Tumor volume was calculated as π/6*a*b*b.L×W2/2 (a and b are the length and width of the tumor, respectively). […] The results were shown in Drawings as FIG. 9, 10, 11, 12, 13, 14, 15, 16.

[11] = both sexes, Sprague-Dawley, rat, plasma, iv, 10 mg/kg, IV 10 mg/kg
[12] = both sexes, Sprague-Dawley, rat, plasma, iv, 10 mg/kg, IV 10 mg/kg, read-out: Cmax
[13] = both sexes, Sprague-Dawley, rat, plasma, iv, 10 mg/kg, IV 10 mg/kg, read-out: Tmax
[14] = both sexes, Sprague-Dawley, rat, plasma, po, 25 mg/kg, PO 25 mg/kg
[15] = both sexes, Sprague-Dawley, rat, plasma, po, 25 mg/kg, PO 25 mg/kg, read-out: Cmax
[16] = both sexes, Sprague-Dawley, rat, plasma, po, 25 mg/kg, PO 25 mg/kg, read-out: Tmax
[17] = read-out: IC50 on tumor cell proliferation, BAF3-T315I cells; Ba/F3 expressing BCR/ABL T315I, 72 h, Table 1
[18] = both sexes, Sprague-Dawley, rat, plasma, po
[19] = Ba/F3-Bcr/ABL-T315I xenograft, 25 mg/kg po, q2d or qd
[20] = both sexes, Sprague-Dawley, rat, plasma, iv, 5 mg/kg, IV 5 mg/kg
[21] = both sexes, Sprague-Dawley, rat, plasma, iv, 5 mg/kg, IV 5 mg/kg, read-out: Cmax
[22] = both sexes, Sprague-Dawley, rat, plasma, iv, 5 mg/kg, IV 5 mg/kg, read-out: Tmax
[23] = 20 mg/kg po, q2d or qd (Example 51)

| Structure (SMILES) | AUC(0-inf) [1, 14] [ng·h/mL] | half-life [1, 14] [min] | Cmax [1, 15] [ng/mL] | Tmax [1, 16] [min] | IC50 [3] [nM] | IC50 [4] [nM] | IC50 [5] [nM] | IC50 [6] [nM] | IC50 ([7]; U-937, 72 h) [nM] | GI50 [8, 17] [nM] | pharmacokinetics parameters, overall judgement [1] | IC50 [9] [nM] | bioavailability [1, 18] [%] | effect on tumor growth ([2]; 25 mg/kg po qd) | effect on body weight [2] | also measured |
| --- | --- | --- | --- | --- | --- | --- | --- | --- | --- | --- | --- | --- | --- | --- | --- | --- |
| Cc1cn(-c2cc(NC(=O)c3ccc(C)c(C#Cc4cnc(NC5CC5)nc4)c3)cc(C(F)(F)F)c2)cn1 [D747 hydrochloride salt, 3-(2-(2-(cyclopropylamino)pyrimidin-5-yl)ethynyl)-4-methyl-N-(3-(4-methyl-1H-imidazol-1-yl)-5-(trifluoromethyl)phenyl)benzamide] | 252000 | 2920 | 6200 | 270 |  |  |  |  |  |  |  |  |  | completely inhibit the tumor growth | did not cause the body weight loss | BA(% Oral bioavailability) [1]: 35.3%; AUC(0-inf) [1, 11]: 285000 ng·h/mL; half-life [1, 11]: 4310 min; Cmax [1, 12]: 49800 ng/mL; Tmax [1, 13]: 1.98 min; anti-tumor effect compared with imatinib [2]: better anti-tumor effect than imatinib |
| Cc1cn(-c2cc(NC(=O)c3ccc(C)c(C#Cc4cnc(NC5CC5)nc4)c3)cc(C(F)(F)F)c2)cn1 [D747, 3-(2-(2-(cyclopropylamino)pyrimidin-5-yl)ethynyl)-4-methyl-N-(3-(4-methyl-1H-imidazol-1-yl)-5-(trifluoromethyl)phenyl)benzamide] |  |  |  |  | 7540 | > 10000 | 10600 | 2.6 | 11500 | 99.7 | adequate pharmacokinetics parameters | 96 |  |  |  |  |
| Cc1cn(-c2cc(NC(=O)c3ccc(C)c(C#Cc4cnc(NC(C)C)nc4)c3)cc(C(F)(F)F)c2)cn1 [D752, 3-(2-(2-(isopropylamino)pyrimidin-5-yl)ethynyl)-4-methyl-N-(3-(4-methyl-1H-imidazol-1-yl)-5-(trifluoromethyl)phenyl)benzamide] |  |  |  |  | 22600 | 12700 | > 10000 | 3.48 | 8990 | 1030 | adequate pharmacokinetics parameters | 840 |  |  |  |  |
| CCNc1ncc(C#Cc2cc(C(=O)Nc3cc(-n4cnc(C)c4)cc(C(F)(F)F)c3)ccc2C)cn1 [D755, 3-(2-(2-(ethylamino)pyrimidin-5-yl)ethynyl)-4-methyl-N-(3-(4-methyl-1H-imidazol-1-yl)-5-(trifluoromethyl)phenyl)benzamide] |  |  |  |  | > 10000 | > 10000 | 11800 | 7.59 | > 10000 | 61 | adequate pharmacokinetics parameters | 220 |  |  |  |  |
| Cc1cn(-c2cc(NC(=O)c3ccc(C)c(C#Cc4cnc5[nH]ncc5c4)c3)cc(C(F)(F)F)c2)cn1 [D767 mesylate salt, 3-(2-(1H-pyrazolo[3,4-b]pyridin-5-yl)ethynyl)-4-methyl-N-(3-(4-methyl-1H-imidazol-1-yl)-5-(trifluoromethyl)phenyl)benzamide] |  |  |  |  |  |  |  |  |  |  |  |  |  | completely inhibit the tumor growth | did not cause the body weight loss | Tmax ([1]; IV 5 mg/kg): 1.98 min; AUC(0-∞) ([1]; IV 5 mg/kg, 5 mg/kg): 59.22245 µg·h/mL; Cmax ([1]; IV 5 mg/kg, 5 mg/kg): 14093.75 ng/mL; T1/2 ([1]; IV 5 mg/kg, 5 mg/kg): 4.471 h; AUC(0-∞) ([1]; PO 25 mg/kg, 25 mg/kg): 27.850615 µg·h/mL; Cmax ([1]; PO 25 mg/kg, 25 mg/kg): 2322.5 ng/mL; T1/2 ([1]; PO 25 mg/kg, 25 mg/kg): 5.949 h; Tmax ([1]; PO 25 mg/kg, 25 mg/kg): 165 min; BA(% Oral bioavailability) [1]: 9.4% |
| Cc1cn(-c2cc(NC(=O)c3ccc(C)c(C#Cc4cnc5[nH]ncc5c4)c3)cc(C(C)(C)C)c2)cn1 [D968 mesylate, 3-(2-(1H-pyrazolo[3,4-b]pyridin-5-yl)ethynyl)-N-(3-tert-butyl-5-(4-methyl-1H-imidazol-1-yl)phenyl)-4-methylbenzamide mesylate] |  |  |  |  |  |  |  |  |  |  |  |  |  |  |  | effect on tumor growth [10, 23]: inhibit the tumor growth |

Further lines, with some results ahead:

| AUC(0-inf) [1, 14] [ng·h/mL] | half-life [1, 14] [min] | Cmax [1, 15] [ng/mL] | Tmax [1, 16] [min] | IC50 [3] [nM] | IC50 [4] [nM] | IC50 [5] [nM] | IC50 [6] [nM] | IC50 ([7]; U-937, 72 h) [nM] | GI50 [8, 17] [nM] | pharmacokinetics parameters, overall judgement [1] | IC50 [9] [nM] | bioavailability [1, 18] [%] | Structure (SMILES) | effect on tumor growth ([2]; 25 mg/kg po qd) | effect on body weight [2] | also measured |
| --- | --- | --- | --- | --- | --- | --- | --- | --- | --- | --- | --- | --- | --- | --- | --- | --- |
|  |  |  |  |  |  |  |  |  |  | adequate pharmacokinetics parameters |  |  | Cc1cn(-c2cc(NC(=O)c3ccc(C)c(C#Cc4cnc5[nH]ncc5c4)c3)cc(C(F)(F)F)c2)cn1 [D767, 3-(2-(1H-pyrazolo[3,4-b]pyridin-5-yl)ethynyl)-4-methyl-N-(3-(4-methyl-1H-imidazol-1-yl)-5-(trifluoromethyl)phenyl)benzamide] |  |  | IC50 ([3]; MTT or CCK8, nM): > 100 nM; IC50 ([4]; MTT or CCK8, nM): > 100 nM; IC50 ([5]; MTT or CCK8, nM): 11.8 nM; IC50 ([6]; MTT or CCK8, nM): 0.208 nM; IC50 ([7]; U-937, 72 h, MTT or CCK8, nM): > 100 nM; GI50 ([8]; Ba/F3 expressing BCR/ABL T315I, 72 h, Table 1; read-out: IC50 on tumor cell proliferation, BAF3-T315I cells): 4.24 nM; IC50 ([9]; imatinib-resistant K562R): 89 nM |
| 10700 | 482 | 814 | 180 |  |  |  |  |  |  |  |  | 31.2 | Cc1cn(-c2cc(NC(=O)c3ccc(C)c(C#Cc4cnc5ccnn5c4)c3)cc(C(F)(F)F)c2)cn1 [D822 mesylate salt, 4-methyl-N-(3-(4-methyl-1H-imidazol-1-yl)-5-(trifluoromethyl)phenyl)-3-(2-(pyrazolo[1,5-a]pyrimidin-6-yl)ethynyl)benzamide] | completely inhibit the tumor growth | did not cause the body weight loss | AUC(0-inf) [1, 11]: 13800 ng·h/mL; half-life [1, 11]: 189 min; Cmax [1, 12]: 23100 ng/mL; Tmax [1, 13]: 1.98 min; anti-tumor effect compared with imatinib [2]: better anti-tumor effect than imatinib |
| 12600 | 523 | 775 |  |  |  |  |  |  |  |  |  | 58.7 | Cc1ccc(C(=O)Nc2ccc(CN3CCN(C)CC3)c(C(F)(F)F)c2)cc1C#Cc1cnc2[nH]ncc2c1 [D824 dimesylate salt, 3-(2-(1H-pyrazolo[3,4-b]pyridin-5-yl)ethynyl)-4-methyl-N-(4-((4-methylpiperazin-1-yl)methyl)-3-(trifluoromethyl)phenyl)benzamide dimesylate] |  | did not cause the body weight loss | effect on body weight [10, 19]: help the body weight gain; effect on tumor growth [10, 19]: almost completely suppressed the tumor growth; Tmax ([1]; PO 25 mg/kg, dimesylate, 25 mg/kg): 255 min; AUC(0-inf) [1, 20]: 4300 ng·h/mL; half-life [1, 20]: 366 min; Cmax [1, 21]: 2240 ng/mL; Tmax [1, 22]: 1.98 min; effect on tumor growth ([2]; 5 mg/kg po qd): completely inhibit the tumor growth |
| 31800 | 1330 | 900 | 390 |  |  |  |  |  |  |  |  | 78 | Cc1ccc(C(=O)Nc2ccc(CN3CCN(C)CC3)c(C(F)(F)F)c2)cc1C#Cc1cnc2ccnn2c1 [D856 dimesylate salt, 4-methyl-N-(4-((4-methylpiperazin-1-ylmethyl)-3-(trifluoromethyl)phenyl)-3-(2-(pyrazolo[1,5-a]pyrimidin-6-yl)ethynyl)benzamide dimesylate] |  |  | effect on tumor growth [10, 23]: inhibit the tumor growth; AUC(0-inf) [1, 20]: 8170 ng·h/mL; half-life [1, 20]: 1200 min; Cmax [1, 21]: 934 ng/mL; Tmax [1, 22]: 1.98 min |
